Measured values published in US20250388568A1, “NLRP3 INHIBITORS” (Kodiak Sciences Inc., priority 2022, published 2025).
Where two headings read alike, the source gives them in different places.

Tests used:
[1] = test system: IL-1β release in U937 cells after NLRP3 activation; assay: IC50 determination of IL-1β release inhibition in U937 cells; assay type: cell-based; settings: Homo sapiens, read-out: IL-1β IC50 (nM) U937 cells
Description: Example 79: IC50 Determination of IL-1β Release Inhibition in U937 Cells The compounds of the present disclosure were tested for their ability to inhibit the IL-1β release in the U937 cells after NLRP3 activation. U937 cells (U-97 CRL 1593.2) were thawed following ATCC's initial culture procedure. […] The growth medium was composed of RPMI1640 medium (Quality Biological 112-040-101), 10% serum (Corning 35-076-CV), Pen/Strep (GIBCO 15140-122), 10 mM Hepes (Quality Biological 118-089-721), 2 mM Glutamax (GIBCO 35050-061), and 100 μg/mL normocin (Invivogen ant-nr)-Differentiating media was prepared by adding Phorbol 12-myristate 13-acetate (PMA) (AdipoGen AG-CN2-0010-M005) to growth medium. A cell suspension was prepared with differentiating media at 500k cells/ml. With an electronic pipet, 200 ul of cell suspension was added to each well (96w white plate Corning 3903) leaving columns 1 and 2 empty. Plates were left in the biosafety cabinet for 15 min and then placed in incubator for 90 hours. Priming media was prepared with assay medium consisting of RPMI 1640 medium, 10 mM Hepes, 2 mM Glutamax and Pen/Strep plus 1 μg/mL LPS (Invivogen tlrl-3pelps). Differentiating media was manually removed and 80 ul of priming media was added to each well with an electronic pipet. The plates were placed in the incubator for 5 hours. […] DMSO). An hour prior to the end of LPS incubation, a separate 96 deep well plate, Plate B, was prepared with 400 μL of assay media per well, then […] of the stock DMSO solution from Plate A was added to each corresponding well. Plate B was covered to avoid media evaporation. In a 50 mL tube, a solution of nigericin in assay media at 50 uM/mL concentration was prepared. To a new 96 deep well plate, Plate C, 200 μL of this nigericin containing media was dispensed to each well and 1 μL of the test compounds from Plate B to each corresponding well was added. Plate C was covered to avoid media evaporation. After 5 hours of priming, all the media from the LPS treated U937 cells was removed manually. To this plate of primed cells, 80 μL/well test compounds from Plate B (assay media+compound) was added in duplicate columns (5 compounds tested per plate). The plate was placed in an incubator for 30 min. […] The plate was placed back in the incubator for 1 hour. At the end of 1 hour, the supernatant from this test plate was transferred to a new 96 well V bottom polypropylene plate which was frozen immediately at -80° C. The plate was transferred to -20° C. the next day and awaited further determination of cytokine IL-Ip level. The release of IL-1β into the cell media was determined by MSD® Multi-Spot Assay System (V-Plex, IL-1B kit, […]-4). Following the manufacture's protocol and using the Alternate Protocol 3, Dilute-In-Plate protocol specifically, the level of IL-IP in the above collected supernatant plate was measured as electrochemiluminescent signals. Using MSD DISCOVERY WORKBENCH® analysis software, the signals were converted to the concentration of IL-1β in each well. The IC50 values of the compounds were calculated using the Graph Pad Prism software based on the IL-1β concentration determined. The detection range of IL-1β using MSD kit was approximately […] (based on various lots of standards purchased from MSD).

[2] = test system: IL-1β release in THP-1-ASC-GFP cells after NLRP3 activation; assay: IC50 determination of IL-1β release inhibition in THP-1-ASC-GFP cells; assay type: cell-based; settings: THP1-ASC-GFP, read-out: IL-1β IC50 (nM) THP1 cells
Description: Example 78: IC50 Determination of IL-1β Release Inhibition in THP-1-ASC-GFP Cells The compounds were tested for their ability to inhibit the IL-1β release in the THP-1-ASC-GFP cells after NLRP3 activation. THP1-ASC-GFP cells (Invivogen […] thawed following Invivogen's initial culture procedure. […] The growth medium was composed of RPM1640 medium (Gibco 32404-014), 10% heat inactivated (HI) serum (Gibco A3840102), Pen/Strep (Quality Biologics 118-089-721), 10 mM Hepes (Quality Biologics 118-089-721), 2 mM Glutamax (GIBCO 35050-061), 100 μg/mL normocin (Invivogen ant-nr), 100 μg/mL Zeocin (Invivogen ant-zn). The growth medium was freshly prepared once a week and sterile filtered. Assay medium consisted of RPMI 1640 medium, 10 mM Hepes, 2 mM Glutamax and Pen/Strep. To the assay medium, 1 μg/mL LPS (Invivogen tlrl-3pelps) was added. A cell suspension was prepared with assay medium and LPS at 1.25M cells per mL. With an electronic pipet, 80 μl of cell suspension was added to U bottom 96 well polystyrene plates (VWR 10062-902) leaving columns 1 and 2 empty. The plates were placed in the incubator for 4 hours. […] DMSO). An hour prior to the end of LPS incubation, a separate 96 deep well plate, Plate B, was prepared with 400 μL of assay media per well, then 2 μL of the stock DMSO solution from Plate A was added to each corresponding well. Plate B was covered to avoid media evaporation. In a 50 mL tube, a solution of nigericin in assay media at […] concentration was prepared. To a new 96 deep well plate, Plate C, 200 μL of this nigericin containing media was dispensed to each well and […] of the test compounds from Plate A to each corresponding well was added. Plate C was covered to avoid media evaporation. After 4 hours of priming, all the media from the LPS treated THP-1 cells in the initial U bottom plate was removed manually. To this plate of primed cells, 80 μL/well test compounds from Plate B was added in duplicate columns (5 compounds tested per plate). The plate was placed in an incubator for 30 min. […] The plate was placed back in the incubator for 1 hour. At the end of 1 hour, the supernatant from this test plate was transferred to a new 96 well V bottom polypropylene plate which was frozen immediately at -80° C. The plate was transferred to -20° C. the next day and awaiting further determination of cytokine IL-1β level. The release of IL-1β into the cell media was determined by MSD® Multi-Spot Assay System (V-Plex, IL-1B kit, […]-4). Following the manufacture's protocol and using the Alternate Protocol 3, Dilute-In-Plate protocol specifically, the level of IL-1β in the above collected supernatant plate was measured as electrochemiluminescent signals. Using MSD DISCOVERY WORKBENCH® analysis software, the signals were converted to the concentration of IL-1β in each well. The IC50 values of the compounds were calculated using the Graph Pad Prism software based on the […] concentration determined. The detection range of IL-1β using MSD kit was approximately […] (based on various lots of standards purchased from MSD).

[3] = U-937, PMA-differentiated U937 cells, LPS priming 5 h, nigericin, average of at least three experiments
[4] = THP-1-ASC-GFP cells, LPS priming 4 h, nigericin, average of at least three experiments

## Cc1oc(S(=N)(=O)NC(=O)Nc2c3c(cc4c2CCC4)CCC3)cc1CN(C)CC1(CO)CCOCC1 (centres unmarked) [Example 10, N-((1,2,3,5,6,7-hexahydro-s-indacen-4-yl)carbamoyl)-4-((((4-(hydroxymethyl)tetrahydro-2H-pyran-4-yl)methyl)(methyl)amino)methyl)-5-methylfuran-2-sulfonimidamide]
[1]; [3]
  IC50: 5 to 50 nM
[2]; [4]
  IC50: < 5 nM

## CNCc1coc([S@@](=N)(=O)NC(=O)Nc2c3c(cc4c2CCC4)CCC3)c1 (single isomer, unassigned) [Example 76]
[1]; [3]
  IC50: < 5 nM
[2]; [4]
  IC50: < 5 nM

## Cc1oc(S(=N)(=O)NC(=O)Nc2c3c(cc4c2CCC4)CCC3)cc1CN1CC[C@@H](CO)C1 (stereo partly drawn) [Example 5, N-((1,2,3,5,6,7-hexahydro-s-indacen-4-yl)carbamoyl)-4-(((R)-3-(hydroxymethyl)pyrrolidin-1-yl)methyl)-5-methylfuran-2-sulfonimidamide]
[1]; [3]
  IC50: < 5 nM
[2]; [4]
  IC50: < 5 nM

## Cc1oc(S(=O)(=O)NC(=O)Nc2c3c(c(F)c4c2CCC4)CCC3)cc1CNCC1(O)CCC1 [Example 36, N-((8-fluoro-1,2,3,5,6,7-hexahydro-s-indacen-4-yl)carbamoyl)-4-((((1-hydroxycyclobutyl)methyl)amino)methyl)-5-methylfuran-2-sulfonamide]
[1]; [3]
  IC50: 50 to 500 nM
[2]; [4]
  IC50: 5 to 50 nM

## Cc1oc(S(=N)(=O)NC(=O)Nc2c3c(cc4c2CCC4)CCC3)cc1CNC(C)C (single isomer, unassigned) [Example 27, N-((1,2,3,5,6,7-hexahydro-s-indacen-4-yl)carbamoyl)-4-((isopropylamino)methyl)-5-methylfuran-2-sulfonimidamide]
[1]; [3]
  IC50: < 5 nM
[2]; [4]
  IC50: < 5 nM

## Cc1oc(S(=N)(=O)NC(=O)Nc2c3c(c(F)c4c2CCC4)CCC3)cc1CN1CC(O)C1 (centres unmarked) [Example 14, N-((8-fluoro-1,2,3,5,6,7-hexahydro-s-indacen-4-yl)carbamoyl)-4-((3-hydroxyazetidin-1-yl)methyl)-5-methylfuran-2-sulfonimidamide]
[1]; [3]
  IC50: 5 to 50 nM
[2]; [4]
  IC50: < 5 nM

## Cc1oc(S(=O)(=O)NC(=O)Nc2c3c(c(F)c4c2CCC4)CCC3)cc1CN1CC[C@H](O)C1 [Example 38, (S)—N-((8-fluoro-1,2,3,5,6,7-hexahydro-s-indacen-4-yl)carbamoyl)-4-((3-hydroxypyrrolidin-1-yl)methyl)-5-methylfuran-2-sulfonamide]
[1]; U-937, 5 h
  IC50: 50 to 500 nM
[2]; 4 h
  IC50: 5 to 50 nM

## Cc1cc(S(=O)(=O)NC(=O)Nc2c3c(c(F)c4c2CCC4)CCC3)oc1CN1CC[C@H](O)C1 [Example 51, (S)-N-((8-fluoro-1,2,3,5,6,7-hexahydro-s-indacen-4-yl)carbamoyl)-5-((3-hydroxypyrrolidin-1-yl)methyl)-4-methylfuran-2-sulfonamide]
[1]; [3]
  IC50: 5 to 50 nM
[2]; [4]
  IC50: < 5 nM

## CNCc1coc([S@](=N)(=O)NC(=O)Nc2c3c(cc4c2CCC4)CCC3)c1 (single isomer, unassigned) [Example 75]
[1]; [3]
  IC50: 50 to 500 nM
[2]; [4]
  IC50: 50 to 500 nM

## Cc1oc(S(=O)(=O)NC(=O)Nc2c3c(c(F)c4c2CCC4)CCC3)cc1CN1CC[C@@H](O)C1 [Example 39, (R)-N-((8-fluoro-1,2,3,5,6,7-hexahydro-s-indacen-4-yl)carbamoyl)-4-((3-hydroxypyrrolidin-1-yl)methyl)-5-methylfuran-2-sulfonamide]
[1]; [3]
  IC50: 50 to 500 nM
[2]; [4]
  IC50: 5 to 50 nM

## Cc1oc([S@@](=N)(=O)NC(=O)Nc2c3c(c(F)c4c2CCC4)CCC3)cc1CNC(C)C (single isomer, unassigned) [Example 28]
[1]; [3]
  IC50: 50 to 500 nM
[2]; [4]
  IC50: 50 to 500 nM

## CC(C)NCc1coc([S@@](=N)(=O)NC(=O)Nc2c3c(c(F)c4c2CCC4)CCC3)c1 (single isomer, unassigned) [Example 30]
[1]; [3]
  IC50: > 500 nM
[2]; [4]
  IC50: 50 to 500 nM

## CN(Cc1cc(S(=O)(=O)NC(=O)Nc2c3c(c(F)c4c2CCC4)CCC3)nn1C)CC1(O)CCC1 [Example 58, 3-(8-fluoro-1,2,3,5,6,7-hexahydro-s-indacen-4-yl)-1-[5-({[(1-hydroxycyclobutyl)methyl](methyl)amino}methyl)-1-methylpyrazol-3-ylsulfonyl]urea]
[1]; [3]
  IC50: 5 to 50 nM
[2]; [4]
  IC50: 50 to 500 nM

## Cc1oc(S(=O)(=O)NC(=O)Nc2c3c(c(Cl)c4c2CCC4)CCC3)cc1CN1CC[C@H](O)C1 [Example 49, (S)—N-((8-chloro-1,2,3,5,6,7-hexahydro-s-indacen-4-yl)carbamoyl)-4-((3-hydroxypyrrolidin-1-yl)methyl)-5-methylfuran-2-sulfonamide]
[1]; [3]
  IC50: 5 to 50 nM

## N=S(=O)(NC(=O)Nc1c2c(cc3c1CCC3)CCC2)c1cc(C(=O)N2CC3(CC(O)C3)C2)co1 (centres unmarked) [Example 3, N-((1,2,3,5,6,7-hexahydro-s-indacen-4-yl)carbamoyl)-4-(6-hydroxy-2-azaspiro[3.3]heptane-2-carbonyl)furan-2-sulfonimidamide]
[1]; [3]
  IC50: 50 to 500 nM

## Cc1cc(S(=O)(=O)NC(=O)Nc2c3c(c(F)c4c2CCC4)CCC3)oc1CN1C[C@@H](O)[C@H](F)C1 [Example 54, N-((8-fluoro-1,2,3,5,6,7-hexahydro-s-indacen-4-yl)carbamoyl)-5-(((3R,4R)-3-fluoro-4-hydroxypyrrolidin-1-yl)methyl)-4-methylfuran-2-sulfonamide]
[1]; [3]
  IC50: < 5 nM
